Results on 31 compounds are retold here after patent publication US5602161A, “Tetrazolylphenyl pivalate derivatives and medicinal composition containing the same as effective component” (Wakamoto Pharmaceutical Co., Ltd., priority 1994, dated 1997).

The target of data set [1] is T1, human neutrophil elastase (Homo sapiens, UniProt P08246).
T1 construct: using elastase from human neutrophil or human sputum; from tissue; host or cells: human neutrophil
T1 sequence (P08246 30-247 limits assumed): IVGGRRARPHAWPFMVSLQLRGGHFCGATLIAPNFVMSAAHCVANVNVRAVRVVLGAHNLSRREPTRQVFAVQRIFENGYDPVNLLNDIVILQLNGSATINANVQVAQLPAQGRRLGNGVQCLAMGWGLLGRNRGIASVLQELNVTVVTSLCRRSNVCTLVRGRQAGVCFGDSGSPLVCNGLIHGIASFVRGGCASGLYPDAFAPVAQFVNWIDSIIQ
Description: Inhibitory effect on elastase (human neutrophil), spectrophotometric assay with MeOSuc-Ala-Ala-Pro-Val-pNA. It is filed as biochemical. As to conditions: N: human neutrophil elastase; pH 8.0, 37° C.; read-out: IC50.
Description: (§1) Namely, it is a spectrophotometric assay using the synthesized substrate, methoxysuccinyl-alanyl-alanyl- prolyl-valyl-p-nitroanilide(MeOSuc-Ala-Ala-Pro-Val-pNA, Cambridge research biochemical Co.) which has high specificity on neutrophil elastase.
(§2) 20 μl of a test compound of various concentrations and 20 μl of enzyme solution (13 unit/ml) were added to 400 μl of 0.1M sodium phosphate buffer (pH 8.0). The mixture was incubated at 37° C. for 5 min, and then 20 μl of the substrate was added to the mixture in a final volume of 460 μl. The reaction was conducted by incubating thus obtained mixture at 37° C. for 20 min. The reaction was stopped by the addition of 300 μl of 20% acetic acid into the reaction mixture, and then p-nitroanilide released was measured by the spectrophotometrically at 405 nm.
(§3) Inhibition percents of the test compounds were calculated by the following equation:
(§4) Inhibition %=[1-(OD 405 nm value of the testing sample-background)/(OD 405 nm value of the control-background)]×100

Data set [2] has as its target T2, human sputum elastase (Homo sapiens, UniProt P08246).
T2 sequence (P08246 30-247 limits assumed): T1 sequence (P08246 30-247 limits assumed)
Briefly: Inhibitory effect on elastase (human sputum), spectrophotometric assay with MeOSuc-Ala-Ala-Pro-Val-pNA. It is filed as biochemical. As to conditions: S: human sputum elastase; pH 8.0, 37° C.; read-out: IC50.
Description: as §1, §2, §3, §4

Data set [3] is described as follows: Cytotoxicity test (MTT, three days). It is filed as cell-based. As to conditions: mouse, l1210 cells, read-out: Survival rate; for viability at 72 h, 1 µM: final concentration 1 μM; for viability at 72 h, 5 µM: final concentration 5 μM; for viability at 72 h, 10 µM: final concentration 10 μM. The protocol:
L1210 (lymphocytic leukemia, mouse) cells in a logarithmic growth phase were collected and washed twice with HBSS (Hanks' balanced salt solution). The L1210 cells were resuspended at 5.0×10^4 cells/ml in RPMI 1640 medium containing 10% heat-inactivated fetal bovine serum. The cell suspension was dispensed in 100 μl aliquots into 96 well multi-plate. Each of compounds to be tested was dissolved in dimethylsulfoxide at a concentration of 10 mM. The solutions were stepwise diluted with RPMI 1640 solution containing 10% heat-inactivated fetal bovine serum. Each of the diluted samples was dispensed in an amount of 10 μl well in the 96 well multi-plate containing L1210 cells and incubated for three days at 37° C. in humidified 5% CO2 -air mixture. To each of the wells, 10 μl of MTT (3-(4,5-dimethylthiazol-2-yl)-2,5-diphenyltetrazolium bromide)(5 mg/ml in phosphate buffer free of Ca^2+ and Mg^2+) was added. Cultivation was continued for additional five hours at 37° C. in humidified 5% CO2 -air mixture. To each of the wells, 100 μl of 20% SDS (sodium dodecyl sulfate) in 0.01N HCl was added to solubilize the MTT formazan.
Absorbance was measured at 630 nm as a reference wavelength and 570 nm as a measuring wavelength using Corona Electric MTP22 Microplate Photometer. The measurement was conducted three times for each of the samples to obtain an average value and a standard deviation. Survival rate was calculated by the following equation:
Survival rate (5)=[(absorbance of test sample)/(absobance of […]

The IC50 is the midpoint of a concentration-inhibition curve.

Counter-ions that a name gives are not always drawn.

For `COC(=O)c1ccccc1Cn1nnc(-c2ccc(OC(=O)C(C)(C)C)cc2)n1` [Example 24, 4-[2-(2-Methoxycarbonylbenzyl)tetrazol-5-yl]phenyl pivalate], the IC50 in data set [1] turned out to be 0.1 µM.

With `Cc1cc(-c2nnn(Cc3ccc(N(C)C)cc3)n2)ccc1OC(=O)C(C)(C)C` [Example 49, 4-[2-[4-(Dimethylamino)benzyl]tetrazol-5-yl]-2-methylphenyl pivalate], the half-maximal inhibitory concentration (IC50) in data set [2] was 0.7 µM. Besides, in data set [3], the viability at 72 h, 1 µM came to 103%; the viability at 72 h, 5 µM is 105%; the viability at 72 h, 10 µM was 110%.

`COc1ccc(CCCn2nnc(-c3ccc(OC(=O)C(C)(C)C)cc3)n2)cc1` [Example 20, 4-[2-[3-(4-Methoxyphenyl)propyl]tetrazol-5-yl]phenyl pivalate]: the IC50 in data set [1] turned out to be 0.09 µM.

Consider `CC(C)(C)C(=O)Oc1ccc(-c2nnn(CC(=O)Nc3ccccc3)n2)cc1` [Example 11, 4-[2-(N-Phenylcarbamoylmethyl)tetrazol-5-yl]phenyl pivalate], for which, in data set [1], the IC50 came out at 0.85 µM.

Regarding `CC(C)(C)C(=O)Oc1ccc(-c2nnn(Cc3ccccc3N)n2)cc1` [Example 78, 4-[2-(2-Aminobenzyl)tetrazol-5-yl]phenyl pivalate], in data set [2], the IC50 came out at 0.091 µM. Besides, in data set [3], the viability at 72 h, 1 µM amounted to 103%; the viability at 72 h, 5 µM worked out at 107%; the viability at 72 h, 10 µM turned out to be 93.7%.

On to `CC(C)(C)C(=O)Oc1ccc(-c2nnn(C(C(=O)O)c3ccccc3)n2)cc1` (stereo not drawn) [Example 69, 2-Phenyl-2-[5-(4-pivaloyloxyphenyl)tetrazol-2-yl]acetic acid], for which the IC50 in data set [2] was 0.82 µM. Further, in data set [3], the viability at 72 h, 1 µM was found to be 96.7%; the viability at 72 h, 5 µM came to 105%; the viability at 72 h, 10 µM is 101%.

On to `CC(C)(C)C(=O)Oc1ccc(-c2nnn(CCCCCO)n2)cc1` [Example 74, 4-[2-(5-Hydroxypentyl)tetrazol-5-yl]phenyl pivalate], for which, in data set [1], the half-maximal inhibitory concentration (IC50) is 0.098 µM.

As to `CC(C)[C@H](NC(=O)c1ccc(Cn2nnc(-c3ccc(OC(=O)C(C)(C)C)cc3)n2)cc1)C(=O)O` [Example 67, N-[4-[5-(4-Pivaloyloxyphenyl)tetrazol-2-ylmethyl]benzoyl]-L-valine], the IC50 in data set [2] came to 0.13 µM. In addition, in data set [3], the viability at 72 h, 1 µM worked out at 92.2%; the viability at 72 h, 5 µM was found to be 100%; the viability at 72 h, 10 µM worked out at 90.1%.

As to `CC(C)(C)C(=O)Oc1ccc(-c2nnn(CC(=O)N3CCCCC3)n2)cc1` [Example 12, 4-[2-(Piperidinocarbonylmethyl)tetrazol-5-yl]phenyl pivalate], the IC50 in data set [1] was 0.51 µM.

With `COc1ccc(Cn2nnc(-c3ccc(OC(=O)C(C)(C)C)cc3)n2)cc1` [Example 13, 4-[2-(4-Methoxybenzyl)tetrazol-5-yl]phenyl pivalate], the half-inhibitory concentration (IC50) in data set [1] was 0.072 µM.

In the case of `CC(C)(C)C(=O)Oc1ccc(-c2nnn(Cc3ccccc3)n2)cc1` [Example 9, 4-(2-Benzyltetrazol-5-yl)phenyl pivalate], the IC50 in data set [2] amounted to 0.17 µM. Moreover, in data set [3], the viability at 72 h, 1 µM stood at 93.9%; the viability at 72 h, 5 µM was 100%; the viability at 72 h, 10 µM was found to be 98.1%.

In the case of `CC(C)c1ccc(-n2nnc(-c3ccc(OC(=O)C(C)(C)C)cc3)n2)cc1` [Example 6, 4-[2-(4-Isopropylphenyl)tetrazol-5-yl)phenyl pivalate], in data set [2], the concentration for half-maximal inhibition (IC50) came out at 4.4 µM. In data set [3], the viability at 72 h, 1 µM turned out to be 94.9%; the viability at 72 h, 5 µM stood at 88.7%; the viability at 72 h, 10 µM turned out to be 70.1%.

Take `COc1ccc(COCCn2nnc(-c3ccc(OC(=O)C(C)(C)C)cc3)n2)cc1` [Example 41, 4-[2-[2-(4-Methoxybenzyloxy)ethyl]tetrazol-5-yl]phenyl pivalate]: the IC50 in data set [1] is 0.065 µM.

For the compound `COc1ccc(CCn2nnc(-c3ccc(OC(=O)C(C)(C)C)cc3)n2)cc1` [Example 44, 4-[2-[2-(4-Methoxyphenyl)ethyl]tetrazol-5-yl]phenyl pivalate], the IC50 in data set [1] amounted to 0.085 µM.

As for `CC(C)(C)C(=O)Oc1ccc(-c2nnn(CCCCC(=O)O)n2)cc1` [Example 93, 5-[5-(4-Pivaloyloxyphenyl)tetrazol-2-yl]valeric acid], the half-maximal inhibitory concentration (IC50) in data set [1] stood at 0.52 µM.

For the compound `CC(C)(C)C(=O)Oc1ccc(-c2nnn(Cc3ccc(C(=O)O)cc3)n2)cc1` [Example 54, 4-[5-(4-Pivaloyloxyphenyl)tetrazol-2-ylmethyl]benzoic acid], the IC50 in data set [2] came to 0.056 µM. In data set [3], the viability at 72 h, 1 µM is 101%; the viability at 72 h, 5 µM is 107%; the viability at 72 h, 10 µM was found to be 100%.

On to `COc1cc(-c2nnn(Cc3ccc(N(C)C)cc3)n2)ccc1OC(=O)C(C)(C)C` [Example 48, 4-[2-[4-(Dimethylamino)benzyl]tetrazol-5-yl]-2-methoxyphenyl pivalate], for which, in data set [2], the IC50 was 0.7 µM. Moreover, in data set [3], the viability at 72 h, 1 µM worked out at 99.4%; the viability at 72 h, 5 µM came to 94.6%; the viability at 72 h, 10 µM is 86.1%.

For the compound `CC(C)(C)C(=O)Oc1ccc(-c2nnn(Cc3ccc(O)cc3)n2)cc1` [Example 75, 4-[2-(4-Hydroxybenzyl)tetrazol-5-yl]phenyl pivalate], the IC50 in data set [1] came out at 0.08 µM.

Regarding `CN(C(=O)OC(C)(C)C)c1ccc(Cn2nnnc2-c2ccc(OC(=O)C(C)(C)C)cc2)cc1` [Example 40, 4-[1-[4-(N-t-Butoxycarbonyl-N-methylamino)benzyl]tetrazol-5-yl]phenyl pivalate], the IC50 in data set [2] was found to be 0.25 µM.

For the compound `CC(C)(C)C(=O)Oc1ccc(-c2nnn(Cc3cccc(OCC(=O)O)c3)n2)cc1` [Example 82, 3-[5-(4-Pivaloyloxyphenyl)tetrazol-2-ylmethyl]phenoxyacetic acid], the concentration for half-maximal inhibition (IC50) in data set [2] was determined as 0.092 µM.

`CC(C)(C)C(=O)Oc1ccc(-c2nnn(Cc3ccccc3C(=O)O)n2)cc1` [Example 52, 2-[5-(4-Pivaloyloxyphenyl)tetrazol-2-ylmethyl]benzoic acid]: the IC50 in data set [2] was found to be 0.35 µM.

Take `CC(C)Cn1nnc(-c2ccc(OC(=O)C(C)(C)C)cc2)n1` [Example 37, 4-[2-(2-Methylpropyl)tetrazol-5-yl]phenyl pivalate]: in data set [2], the IC50 amounted to 0.18 µM. Further, in data set [3], the viability at 72 h, 1 µM is 92.5%; the viability at 72 h, 5 µM is 106%; the viability at 72 h, 10 µM came out at 95.5%.

`CC(C)(C)OC(=O)COc1ccc(Cn2nnc(-c3ccc(OC(=O)C(C)(C)C)cc3)n2)cc1` [Example 32, t-Butyl 4-[5-(4-pivaloyloxyphenyl)tetrazol-2-ylmethyl]phenoxyacetate]: in data set [2], the IC50 amounted to 0.38 µM.

Consider `CC(C)(C)C(=O)Oc1ccc(-c2nnn(Cc3ccc([N+](=O)[O-])cc3)n2)cc1` [Example 25, 4-[2-(4-Nitrobenzyl)tetrazol-5-yl]phenyl pivalate], for which the 50% inhibitory concentration (IC50) in data set [2] turned out to be 0.28 µM.

Regarding `CC(C)(C)C(=O)Oc1ccc(-c2nnn(Cc3cccc(OCCN)c3)n2)cc1` [Example 85, 4-[2-[3-(2-Aminoethoxy)benzyl]tetrazol-5-yl]phenyl pivalate Hydrochloride], in data set [2], the IC50 stood at 0.077 µM.

For the compound `CN(C)CCn1nnc(-c2ccc(OC(=O)C(C)(C)C)cc2)n1` [Example 38, 4-[2-(2-Dimethylaminoethyl)tetrazol-5-yl]phenyl pivalate Hydrochloride], in data set [2], the IC50 was 0.8 µM.

On to `CC(C)(C)C(=O)Oc1ccc(-c2nnn(C(c3ccccc3)c3ccccc3)n2)cc1` [Example 28, 4-[2-(Diphenylmethyl)tetrazol-5-yl]phenyl pivalate], for which the IC50 in data set [2] is 0.22 µM.

Turning to `CSCCC(NC(=O)c1ccc(Cn2nnc(-c3ccc(OC(=O)C(C)(C)C)cc3)n2)cc1)C(=O)O` (racemic) [Example 62, N-[4-[5-(4-Pivaloyloxyphenyl)tetrazol-2-ylmethyl]benzoyl]-DL-methionine], in data set [2], the IC50 turned out to be 0.079 µM.

Regarding `CC(C)(C)C(=O)Oc1ccc(-c2nnn(CC(=O)O)n2)cc1` [Example 80, 5-(4-Pivaloyloxyphenyl)-2-tetrazoleacetic acid], in data set [3], the viability at 72 h, 1 µM was found to be 93.9%; the viability at 72 h, 5 µM was 98.1%; the viability at 72 h, 10 µM stood at 109%.

For `CC(C)(C)C(=O)Oc1ccc(-c2nnn(C(C)(C)C)n2)cc1` [Example 36, 4-[2-(1,1-Dimethylethyl)tetrazol-5-yl]phenyl pivalate], the IC50 in data set [2] amounted to 0.8 µM.

Regarding `COc1ccc(COCCCCn2nnc(-c3ccccc3OC(=O)C(C)(C)C)n2)cc1` [Example 22, 2-[2-[4-(4-Methoxybenzyloxy)butyl]tetrazol-5-yl]phenyl pivalate], the IC50 in data set [2] is 4.3 µM. Further, in data set [3], the viability at 72 h, 1 µM stood at 102%; the viability at 72 h, 5 µM was 86.4%; the viability at 72 h, 10 µM was 86.7%.
